Consider 26 compounds from patent US7160888B2, “[1,8]naphthyridin-2-ones and related compounds for the treatment of schizophrenia” (Warner Lambert Company LLC, priority 2003, dated 2007).

This assay has as its target D2 receptor (Homo sapiens, UniProt P14416). The experiment in a line: [3H]Thymidine uptake assay for D2 intrinsic activity. It is filed as cell-based. As to conditions: test compound 1 μM, 1 μM Quinpirole = 100% intrinsic activity.

The Emax is the maximal effect, on the per cent scale that the assay sets.

Chain of D2 receptor (P14416 whole entry): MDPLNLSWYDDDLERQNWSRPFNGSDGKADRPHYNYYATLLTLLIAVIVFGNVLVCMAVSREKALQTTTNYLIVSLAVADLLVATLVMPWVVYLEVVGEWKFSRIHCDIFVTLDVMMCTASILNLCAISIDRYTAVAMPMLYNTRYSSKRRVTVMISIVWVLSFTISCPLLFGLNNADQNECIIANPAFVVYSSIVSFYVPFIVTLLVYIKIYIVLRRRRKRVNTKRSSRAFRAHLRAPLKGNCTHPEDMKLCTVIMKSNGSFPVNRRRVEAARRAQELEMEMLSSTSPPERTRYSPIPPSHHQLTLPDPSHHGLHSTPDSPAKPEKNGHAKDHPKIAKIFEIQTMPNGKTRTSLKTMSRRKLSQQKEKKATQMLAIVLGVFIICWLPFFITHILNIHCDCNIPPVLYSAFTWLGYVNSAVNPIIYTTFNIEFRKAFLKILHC

On to `O=c1ccc2ccc(OCCCCN3CCN(c4cccc5c(Cl)cccc45)CC3)nc2[nH]1` [Example B58, 7-{4-[4-(5-Chloro-naphthalen-1-yl)-piperazin-1-yl]-butoxy}-1H-[1,8]naphthyridin-2-one], for which, where the note is “Table 1”, the Emax at 1 µM was determined as 42%.

For `O=c1ccc2ccc(OCCCCN3CCN(c4cccc5cccc(Cl)c45)CC3)nc2[nH]1` [Example B59, 7-{4-[4-(8-Chloro-naphthalen-1-yl)-piperazin-1-yl]-butoxy}-1H-[1,8]naphthyridin-2-one], under “Table 1”, the Emax at 1 µM was determined as 37%.

As for `COc1ccc2cccc(N3CCN(CCCCOc4ccc5ccc(=O)[nH]c5n4)CC3)c2c1` [Example B60, 7-{4-[4-(7-Methoxy-naphthalen-1-yl)-piperazin-1-yl]-butoxy}-1H-[1,8]naphthyridin-2-one], the Emax at 1 µM (Table 1) worked out at 28%.

Where the note is “Table 1”, `COc1ccc2c(N3CCN(CCCCOc4ccc5ccc(=O)[nH]c5n4)CC3)cccc2c1` [Example B61, 7-{4-[4-(6-Methoxy-naphthalen-1-yl)-piperazin-1-yl]-butoxy}-1H-[1,8]naphthyridin-2-one] gave a maximal effect (Emax) at 1 µM of 18%.

In the case of `CC(=O)c1ccc2cccc(N3CCN(CCCCOc4ccc5ccc(=O)[nH]c5n4)CC3)c2c1` [Example B62, 7-{4-[4-(7-Acetyl-naphthalen-1-yl)-piperazin-1-yl]-butoxy}-1H-[1,8]naphthyridin-2-one], the maximal effect (Emax) at 1 µM (Table 1) is 21%.

`CC(=O)c1ccc2c(N3CCN(CCCCOc4ccc5ccc(=O)[nH]c5n4)CC3)cccc2c1` [Example B63, 7-{4-[4-(6-Acetyl-naphthalen-1-yl)-piperazin-1-yl]-butoxy}-1H-[1,8]naphthyridin-2-one] showed an Emax at 1 µM (Table 1) of 18%.

`CC(=O)c1cccc2c(N3CCN(CCCCOc4ccc5ccc(=O)[nH]c5n4)CC3)cccc12` [Example B64, 7-{4-[4-(5-Acetyl-naphthalen-1-yl)-piperazin-1-yl]-butoxy}-1H-[1,8]naphthyridin-2-one] registered an Emax at 1 µM (Table 1) of 27%.

For `CC(=O)c1ccc(N2CCN(CCCCOc3ccc4ccc(=O)[nH]c4n3)CC2)c2ccccc12` [Example B65, 7-{4-[4-(4-Acetyl-naphthalen-1-yl)-piperazin-1-yl]-butoxy}-1H-[1,8]naphthyridin-2-one], the maximum response (Emax) at 1 µM (Table 1) turned out to be 10%.

On to `CC(=O)c1ccc2ccccc2c1N1CCN(CCCCOc2ccc3ccc(=O)[nH]c3n2)CC1` [Example B66, 7-{4-[4-(2-Acetyl-naphthalen-1-yl)-piperazin-1-yl]-butoxy}-1H-[1,8]naphthyridin-2-one], for which the Emax at 1 µM (Table 1) was 33%.

`N#Cc1ccc2cccc(N3CCN(CCCCOc4ccc5ccc(=O)[nH]c5n4)CC3)c2c1` [Example B67, 8-{4-[4-(7-Oxo-7,8-dihydro-[1,8]naphthyridin-2-yloxy)-butyl]-piperazin-1-yl}-naphthalene-2-carbonitrile]: the Emax at 1 µM (Table 1) amounted to 39%.

For the compound `Cn1c(=O)ccc2ccc(OCCCCN3CCN(c4cccc5ccccc45)CC3)nc21` [Example B68, 1-Methyl-7-[4-(4-naphthalen-1-yl-piperazin-1-yl)-butoxy]-1H-[1,8]naphthyridin-2-one], where the note is “Table 1”, the maximal effect (Emax) at 1 µM worked out at 17%.

With `O=c1ccc2ccc(OCCCN3CCN(c4cccc(Cl)c4Cl)CC3)nc2[nH]1` [Example C1, 7-{3-[4-(2,3-Dichloro-phenyl)-piperazin-1-yl]-propoxy}-1H-[1,8]naphthyridin-2-one], the Emax at 1 µM (Table 1) is 43%.

As to `CC1(C)CC(=O)Nc2nc(OCCCCN3CCN(c4cccc5cccnc45)CC3)ccc21` [Example C1′, 4,4-Dimethyl-7-[4-(4-quinolin-8-yl-piperazin-1-yl)-butoxy]-3,4-dihydro-1H-[1,8]naphthyridin-2-one], the Emax at 1 µM (Table 2) stood at 38%.

For the compound `O=c1ccc2ccc(OCCCN3CCN(c4cccc5ccccc45)CC3)nc2[nH]1` [Example C2, 7-[3-(4-Naphthalen-1-yl-piperazin-1-yl)-propoxy]-1H-[1,8]naphthyridin-2-one], the Emax at 1 µM (Table 1) came to 24%.

As to `CC1(C)CC(=O)Nc2nc(OCCCCN3CCN(c4cccc5c4OCCO5)CC3)ccc21` [Example C2′, 7-{4-[4-(2,3-Dihydro-benzo[1,4]dioxin-5-yl)-piperazin-1-yl]-butoxy}-4,4-dimethyl-3,4-dihydro-1H-[1,8]naphthyridin-2-one], the Emax at 1 µM (Table 2) was found to be 22%.

Consider `O=C1CCc2ccc(OCCCN3CCN(c4cccc5ccccc45)CC3)nc2N1` [Example C3, 7-[3-(4-Naphthalen-1-yl-piperazin-1-yl)-propoxy]-3,4-dihydro-1H-[1,8]naphthyridin-2-one], for which the Emax at 1 µM (Table 1) is 22%.

Where the note is “Table 2”, `CC1(C)CC(=O)Nc2nc(OCCCCN3CCN(c4cccc5c4NC(=O)CC5)CC3)ccc21` [Example C3′, 4,4-Dimethyl-7-{4-[4-(2-oxo-1,2,3,4-tetrahydro-quinolin-8-yl)-piperazin-1-yl]-butoxy}-3,4-dihydro-1H-[1,8]naphthyridin-2-one] registered an Emax at 1 µM of 19%.

As to `O=c1ccc2ccc(OCCN3CCN(c4cccc(Cl)c4Cl)CC3)nc2[nH]1` [Example C4, 7-{2-[4-(2,3-Dichloro-phenyl)-piperazin-1-yl]-ethoxy}-1H-[1,8]naphthyridin-2-one], for the setting “Table 1”, the Emax at 1 µM came to 2%.

Under “Table 2”, `CC1(C)CC(=O)Nc2nc(OCCCCN3CCN(c4cccc5ccc(=O)[nH]c45)CC3)ccc21` [Example C4′, 4,4-Dimethyl-7-{4-[4-(2-oxo-1,2-dihydro-quinolin-8-yl)-piperazin-1-yl]-butoxy}-3,4-dihydro-1H-[1,8]naphthyridin-2-one] gave an Emax at 1 µM of 21%.

In the case of `CC(CCCN1CCN(c2cccc(Cl)c2Cl)CC1)Oc1ccc2c(n1)NC(=O)CC2` (centres unmarked) [Example C5, 7-{4-[4-(2,3-Dichloro-phenyl)-piperazin-1-yl]-1-methyl-butoxy}-3,4-dihydro-1H-[1,8]naphthyridin-2-one], where the note is “Table 1”, the Emax at 1 µM came to 40%.

As for `CC1(C)CC(=O)Nc2nc(OCCCCN3CCN(c4cccc5ccoc45)CC3)ccc21` [Example C5′, 7-[4-(4-Benzofuran-7-yl-piperazin-1-yl)-butoxy]-4,4-dimethyl-3,4-dihydro-1H-[1,8]naphthyridin-2-one], the Emax at 1 µM (Table 2) was 23%.

In turn, `CC(CCCN1CCN(c2cccc3ccccc23)CC1)Oc1ccc2c(n1)NC(=O)CC2` (centres unmarked) [Example C6, 7-[1-Methyl-4-(4-naphthalen-1-yl-piperazin-1-yl)-butoxy]-3,4-dihydro-1H-[1,8]naphthyridin-2-one] returned an Emax at 1 µM (Table 1) of 44%.

`CC1(C)CC(=O)Nc2nc(OCCCCN3CCN(c4cccc5c4OCCC5)CC3)ccc21` [Example C6′, 7-[4-(4-Chroman-8-yl-piperazin-1-yl)-butoxy]-4,4-dimethyl-3,4-dihydro-1H-[1,8]naphthyridin-2-one] came in with an Emax at 1 µM (Table 2) of 24%.

As to `CC(C)(CCCN1CCN(c2cccc(Cl)c2Cl)CC1)Oc1ccc2c(n1)NC(=O)CC2` [Example C7, 7-{4-[4-(2,3-Dichloro-phenyl)-piperazin-1-yl]-1,1-dimethyl-butoxy}-3,4-dihydro-1H-[1,8]naphthyridin-2-one], the Emax at 1 µM (Table 1) came out at 46%.

For the compound `CC(C)(CCCN1CCN(c2cccc3ccccc23)CC1)Oc1ccc2c(n1)NC(=O)CC2` [Example C8, 7-[1,1-Dimethyl-4-(4-naphthalen-1-yl-piperazin-1-yl)-butoxy]-3,4-dihydro-1H-[1,8]naphthyridin-2-one], the Emax at 1 µM (Table 1) worked out at 33%.

Compound `Cc1cccc(N2CCN(CCCCCc3ccc4c(n3)NC(=O)CC4)CC2)c1Cl` [Example C10, 7-{5-[4-(2-Chloro-3-methyl-phenyl)-piperazin-1-yl]-pentyl}-3,4-dihydro-1H-[1,8]naphthyridin-2-one] registered an Emax at 1 µM (Table 1) of 5%.
